PubChem BioAssay AID1963868 (Molecular Pharmacology Branch, DTP, NCI, 2024)

Test system: KRAS PDC tumor spheroids (HUVEC+MSC), viability
Assay: Anticancer human tumor 254851-301-R-J1-PDC patient-derived colon carcinoma cell line growth inhibition [KRAS2]
Details: for IC50: curve of first compound; for viability, T/C: stronger effect = lower value
Method in brief: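 Combination screen of spheroid viability in tumor-cell co-cultures with endothelial (HUVEC) and mesenchymal stem cell stroma. Each agent was tested in half-log dilutions, topping at clinical Cmax or at 10 microM without a known Cmax.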

[1] = second compound 0.1 µM, first compound 0.0316 µM
[2] = second compound 0.1 µM, first compound 0.1 µM
[3] = second compound 0.1 µM, first compound 0.316 µM
[4] = second compound 0.1 µM, first compound 1 µM
[5] = second compound 0.1 µM, first compound 3.16 µM
[6] = second compound 0.1 µM, first compound 10 µM
[7] = second compound 0.316 µM, first compound 0.0316 µM
[8] = second compound 0.316 µM, first compound 0.1 µM
[9] = second compound 0.316 µM, first compound 0.316 µM
[10] = second compound 0.316 µM, first compound 1 µM
[11] = second compound 0.316 µM, first compound 3.16 µM
[12] = second compound 0.316 µM, first compound 10 µM
[13] = second compound 1 µM, first compound 0.0316 µM
[14] = second compound 1 µM, first compound 0.1 µM
[15] = second compound 1 µM, first compound 0.316 µM
[16] = second compound 1 µM, first compound 1 µM
[17] = second compound 1 µM, first compound 3.16 µM
[18] = second compound 1 µM, first compound 10 µM
[19] = second compound 3.16 µM, first compound 0.0316 µM
[20] = second compound 3.16 µM, first compound 0.1 µM
[21] = second compound 3.16 µM, first compound 0.316 µM
[22] = second compound 3.16 µM, first compound 1 µM
[23] = second compound 3.16 µM, first compound 3.16 µM
[24] = second compound 3.16 µM, first compound 10 µM
[25] = second compound 10 µM, first compound 0.0316 µM
[26] = second compound 10 µM, first compound 0.1 µM
[27] = second compound 10 µM, first compound 0.316 µM
[28] = second compound 10 µM, first compound 1 µM
[29] = second compound 10 µM, first compound 3.16 µM
[30] = second compound 10 µM, first compound 10 µM
[31] = second compound 0.1 µM, first compound 0.000316 µM
[32] = second compound 0.1 µM, first compound 0.001 µM
[33] = second compound 0.1 µM, first compound 0.00316 µM
[34] = second compound 0.1 µM, first compound 0.01 µM
[35] = second compound 0.316 µM, first compound 0.000316 µM
[36] = second compound 0.316 µM, first compound 0.001 µM
[37] = second compound 0.316 µM, first compound 0.00316 µM
[38] = second compound 0.316 µM, first compound 0.01 µM
[39] = second compound 1 µM, first compound 0.000316 µM
[40] = second compound 1 µM, first compound 0.001 µM
[41] = second compound 1 µM, first compound 0.00316 µM
[42] = second compound 1 µM, first compound 0.01 µM
[43] = second compound 3.16 µM, first compound 0.000316 µM
[44] = second compound 3.16 µM, first compound 0.001 µM
[45] = second compound 3.16 µM, first compound 0.00316 µM
[46] = second compound 3.16 µM, first compound 0.01 µM
[47] = second compound 10 µM, first compound 0.000316 µM
[48] = second compound 10 µM, first compound 0.001 µM
[49] = second compound 10 µM, first compound 0.00316 µM
[50] = second compound 10 µM, first compound 0.01 µM
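Note: spheroids exposed to compounds for seven days before readout.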
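Throughout, for viability, T/C: 100% = DMSO vehicle control luminescence of the spheroids.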

With `CC1OCC2(CCN(c3cnc(Sc4ccnc(N)c4Cl)c(N)n3)CC2)C1N` (stereo not given) + CNCc1ccccc1-c1csc(C(C)Nc2nc(C)nc3cc(OC)c(OC)cc23)c1 the IC50 (second compound 0.1 µM) was greater than 10000 nM, the IC50 (second compound 0.316 µM) was greater than 10000 nM and the IC50 (second compound 1 µM) was greater than 10000 nM. For the same molecule, the IC50 (second compound 3.16 µM) was less than 31.6 nM, the IC50 (second compound 10 µM) was less than 31.6 nM and the viability, T/C [1] was 103%. For the same molecule, the viability, T/C [2] was 97.3%, the viability, T/C [3] was 88.2% and the viability, T/C [4] was 76.4%. It also gave a viability, T/C [5] of 78.1%, a viability, T/C [6] of 74.6% and a viability, T/C [7] of 92.2%. It also gave a viability, T/C [8] of 90.9%, a viability, T/C [9] of 90.5% and a viability, T/C [10] of 81.1%. It also gave a viability, T/C [11] of 82.6%, a viability, T/C [12] of 75.3% and a viability, T/C [13] of 91.2%. The viability, T/C [14] was 88.5%, the viability, T/C [15] was 86.9% and the viability, T/C [16] was 78.7%. The viability, T/C [17] was 72.4%, the viability, T/C [18] was 67.6% and the viability, T/C [19] was 50.8%. It also gave a viability, T/C [20] of 38.7%, a viability, T/C [21] of 52.9% and a viability, T/C [22] of 30.8%. The viability, T/C [23] was 29.4%, the viability, T/C [24] was 25.9% and the viability, T/C [25] was 0.09%. The viability, T/C [26] was 0.09%, the viability, T/C [27] was 0.08% and the viability, T/C [28] was 0.09%. The viability, T/C [29] was 0.42% and the viability, T/C [30] was 0.17%.
`COC(=O)c1ccc2c(C(=Nc3ccc(N(C)C(=O)CN4CCN(C)CC4)cc3)c3ccccc3)c(O)[nH]c2c1` + C=CC(=O)N1CCN(c2nc(=O)n(-c3c(C)ccnc3C(C)C)c3nc(-c4c(O)cccc4F)c(F)cc23)C(C)C1 gave an IC50 (second compound 0.1 µM) greater than 10000 nM, an IC50 (second compound 0.316 µM) greater than 10000 nM and an IC50 (second compound 1 µM) greater than 10000 nM. The IC50 (second compound 3.16 µM) was greater than 10000 nM, the IC50 (second compound 10 µM) was greater than 10000 nM and the viability, T/C [1] was 91.1%. For the same molecule, the viability, T/C [2] was 89.7%, the viability, T/C [3] was 92.3% and the viability, T/C [4] was 91.8%. For the same molecule, the viability, T/C [5] was 83.5%, the viability, T/C [6] was 85% and the viability, T/C [7] was 89%. The viability, T/C [8] was 99.9%, the viability, T/C [9] was 94% and the viability, T/C [10] was 89.9%. For the same molecule, the viability, T/C [11] was 84.5%, the viability, T/C [12] was 85.5% and the viability, T/C [13] was 90.6%. The viability, T/C [14] was 91.2%, the viability, T/C [15] was 84.9% and the viability, T/C [16] was 76.3%. For the same molecule, the viability, T/C [17] was 77.3%, the viability, T/C [18] was 83.4% and the viability, T/C [19] was 93%. For the same molecule, the viability, T/C [20] was 101%, the viability, T/C [21] was 88.3% and the viability, T/C [22] was 88.7%. The viability, T/C [23] was 75%, the viability, T/C [24] was 85.7% and the viability, T/C [25] was 95.6%. It also gave a viability, T/C [26] of 104%, a viability, T/C [27] of 93.5% and a viability, T/C [28] of 87.4%. The viability, T/C [29] was 77.5% and the viability, T/C [30] was 75.4%.
For `COC(=O)c1ccc2c(C(=Nc3ccc(N(C)C(=O)CN4CCN(C)CC4)cc3)c3ccccc3)c(O)[nH]c2c1` + C=CC(=O)N1CCN(c2nc(OCC3CCCN3C)nc3c2CCN(c2cccc4cccc(C)c24)C3)CC1CC#N, the IC50 (second compound 0.0316 µM) was greater than 10000 nM, the IC50 (second compound 0.1 µM) was greater than 10000 nM and the IC50 (second compound 0.316 µM) was greater than 10000 nM. It also gave an IC50 (second compound 1 µM) greater than 10000 nM, an IC50 (second compound 3.16 µM) of 583 nM and a viability, T/C (second compound 0.0316 µM, first compound 0.0316 µM) of 93.5%. The viability, T/C (second compound 0.0316 µM, first compound 0.1 µM) was 89.8%, the viability, T/C (second compound 0.0316 µM, first compound 0.316 µM) was 98.9% and the viability, T/C (second compound 0.0316 µM, first compound 1 µM) was 87.8%. It also gave a viability, T/C (second compound 0.0316 µM, first compound 3.16 µM) of 81.7%, a viability, T/C (second compound 0.0316 µM, first compound 10 µM) of 83.3% and a viability, T/C [1] of 95.5%. It also gave a viability, T/C [2] of 94.9%, a viability, T/C [3] of 92.3% and a viability, T/C [4] of 83.8%. The viability, T/C [5] was 81.8%, the viability, T/C [6] was 82% and the viability, T/C [7] was 81%. For the same molecule, the viability, T/C [8] was 88.5%, the viability, T/C [9] was 86.3% and the viability, T/C [10] was 77.1%. It also gave a viability, T/C [11] of 68.1%, a viability, T/C [12] of 77.8% and a viability, T/C [13] of 85.8%. The viability, T/C [14] was 86.2%, the viability, T/C [15] was 86.7% and the viability, T/C [16] was 78%. The viability, T/C [17] was 75.6%, the viability, T/C [18] was 76.3% and the viability, T/C [19] was 70%. It also gave a viability, T/C [20] of 65.2%, a viability, T/C [21] of 57.9% and a viability, T/C [22] of 42.3%. The viability, T/C [23] was 7.1% and the viability, T/C [24] was 0.21%.
Work on `Cn1ncnc1[C@H]1c2n[nH]c(=O)c3cc(F)cc(c23)N[C@@H]1c1ccc(F)cc1` + CC1OCC2(CCN(c3cnc(Sc4ccnc(N)c4Cl)c(N)n3)CC2)C1N yielded an IC50 (second compound 0.1 µM) greater than 100 nM, an IC50 (second compound 0.316 µM) greater than 100 nM and an IC50 (second compound 1 µM) greater than 100 nM. For the same molecule, the IC50 (second compound 3.16 µM) was greater than 100 nM, the IC50 (second compound 10 µM) was greater than 100 nM and the viability, T/C [31] was 98%. It also gave a viability, T/C [32] of 102%, a viability, T/C [33] of 100% and a viability, T/C [34] of 98%. For the same molecule, the viability, T/C [1] was 101%, the viability, T/C [2] was 98.9% and the viability, T/C [35] was 89.5%. The viability, T/C [36] was 93.8%, the viability, T/C [37] was 79% and the viability, T/C [38] was 78.8%. The viability, T/C [7] was 78.3%, the viability, T/C [8] was 90.6% and the viability, T/C [39] was 82.4%. The viability, T/C [40] was 85.2%, the viability, T/C [41] was 75.1% and the viability, T/C [42] was 83.6%. The viability, T/C [13] was 83.9%, the viability, T/C [14] was 80.9% and the viability, T/C [43] was 75.1%. The viability, T/C [44] was 77.4%, the viability, T/C [45] was 70.5% and the viability, T/C [46] was 74.5%. It also gave a viability, T/C [19] of 76.9%, a viability, T/C [20] of 74.1% and a viability, T/C [47] of 68.5%. For the same molecule, the viability, T/C [48] was 67.7%, the viability, T/C [49] was 63.7% and the viability, T/C [50] was 57.1%. The viability, T/C [25] was 67.1% and the viability, T/C [26] was 57.2%.
`CC(=O)Nc1cccc(-n2c(=O)n(C3CC3)c(=O)c3c(Nc4ccc(I)cc4F)n(C)c(=O)c(C)c32)c1` + C=CC(=O)N1CCN(c2nc(=O)n(-c3c(C)ccnc3C(C)C)c3nc(-c4c(O)cccc4F)c(F)cc23)C(C)C1 showed an IC50 (second compound 0.1 µM) of 6.27 nM, an IC50 (second compound 0.316 µM) of 5.14 nM and an IC50 (second compound 1 µM) of 6.52 nM. The IC50 (second compound 3.16 µM) was 6.44 nM, the IC50 (second compound 10 µM) was 5.08 nM and the viability, T/C (second compound 0.1 µM, first compound 0.0001 µM) was 104%. The viability, T/C [31] was 105%, the viability, T/C [32] was 89.5% and the viability, T/C [33] was 84.4%. For the same molecule, the viability, T/C [34] was 27.2%, the viability, T/C [1] was 3.31% and the viability, T/C (second compound 0.316 µM, first compound 0.0001 µM) was 102%. The viability, T/C [35] was 103%, the viability, T/C [36] was 87.9% and the viability, T/C [37] was 77.4%. The viability, T/C [38] was 13%, the viability, T/C [7] was 3.29% and the viability, T/C (second compound 1 µM, first compound 0.0001 µM) was 102%. It also gave a viability, T/C [39] of 96.6%, a viability, T/C [40] of 93.9% and a viability, T/C [41] of 74.3%. It also gave a viability, T/C [42] of 35.5%, a viability, T/C [13] of 3.32% and a viability, T/C (second compound 3.16 µM, first compound 0.0001 µM) of 98.5%. The viability, T/C [43] was 99.4%, the viability, T/C [44] was 85.1% and the viability, T/C [45] was 77%. The viability, T/C [46] was 34%, the viability, T/C [19] was 3.35% and the viability, T/C (second compound 10 µM, first compound 0.0001 µM) was 105%. It also gave a viability, T/C [47] of 105%, a viability, T/C [48] of 96.9% and a viability, T/C [49] of 75%. For the same molecule, the viability, T/C [50] was 14.6% and the viability, T/C [25] was 3.11%.
